In patent US20040106588A1 (priority 2002, published 2004):
Read-outs that look alike come from different tables or passages of the source.

Columns and labels:
colon adenocarcinomas = conditions: studies referred to by Reddy et al; cited from earlier work
[1] = topical, cited from earlier work
actinic keratoses [2] = conditions: 0.5% cream added to topical fluorouracil; cited from earlier work
[3] = tested on: II-4 human squamous cell skin cancer cells; test: In vitro sulforhodamine B surviving fraction study of alpha-DFMO, triamcinolone and diclofenac; type: cell-based; conditions: single drug, Day 1 to Day 7
Description: This study was directed to II-4 human squamous cell skin cancer cells.
The cell culture was maintained as a monolayer culture. The cells were plated in 96 well microtiter plates on Day 0 of the study. Some of such wells were used as control wells, so no drugs were added thereto. The aforementioned combination of drugs was added to the microtiter test wells on Day 1. On Day 7, the plates were fixed with cold 10% trichloroacetic acid, and then washed four times with distilled water. Each plate was then stained with 0.4% sulforhodamine B. Excess stain was then removed by washing the plate four times with 1% acetic acid. The stained dye is then solubilized with 50 mM Tris. The stained plates were then “read”, i.e., measured for optical density, on an automatic plate reader at 540 nm. A lower optical density corresponds to a smaller volume of cancerous cells, and a higher optical density corresponds to a larger volume of cancerous cells. A surviving fraction factor fs is then computed for the treated well plates by taking the mean optical density of the treated well plates and dividing by the mean optical density of the control well plates.
As explained in the aforementioned article by Alberts, et al., a mathematically-derived expected fraction factor (fs*) can be computed for each three-drug combination by multiplying together the individual fraction factors for the three individual drugs. A ratio can then be computed for the actual experimentally-determined fraction factor fs divided by the expected fraction factor fs*, and this ratio is presented in the rightmost column of the table in FIG. 7. […] The lower the ratio, the more synergistic is the combination.

II-4 cells in SCID mice = test: Third study: topical alpha-DFMO, triamcinolone or the combination on II-4 tumor volume in SCID mice; type: in vivo, mouse; conditions: single agent, topical daily from 24 hours after implantation; alpha-DFMO 5% or 10%, triamcinolone 0.05% or 0.1%; FIG. 6
Description: The control groups received either no treatment (n=4), or the ointment base (hydrophilic ointment, U.S.P. alone (n=4), or the ointment base (hydrophilic ointment, U.S.P. alone (n=4). Treatments were given daily to the tumor-bearing […] skin continuously beginning 24 hours after tumor implantation. Palpable tumors were measured bi-dimensionally using calipers, three times per week, until tumor sizes approximated 1,500 mm^3 (about 1.5 g). The mice were then euthanized.

[4] = tested on: human colon tumor xenograft (T6) cells; conditions: in vitro; cited from earlier work
UVB-induced skin cancers [5] = conditions: topical, acetone vehicle; cited from earlier work
actinic keratoses [6] = conditions: topical hydrophilic cream, human subjects; cited from earlier work
[7] = Systemic uptake after topical alpha-DFMO, animal studies; type: in vivo; conditions: topical application
From the text: The generic name for alpha-DFMO is eflomithine, which is a racemic mixture of two enantiomers. […] Nonetheless, it may be possible to obtain the advantages of the present invention as described above using only one or the other of the two enantiomers that form the racemic mixture of alpha-DFMO; accordingly, the use of the term “alpha-DFMO” herein should be understood, for purposes of the present patent application, to include both the racemic mixture of the two enantiomers that normally make up alpha-DFMO, as well as each of the two enantiomers that collectively make up the racemic mixture of alpha-DFMO.

[8] = tested on: human lung adenocarcinoma cell line (A549); conditions: A549, in vitro; cited from earlier work
[9] = Skin reactions after topical application in studies treating actinic keratoses; type: in vivo, human; conditions: alpha-DFMO alone, without topical steroid or NSAID, past studies
From the text: The new combination also provides a new method for treating vulvar neoplasia which is much more likely to be tolerated than currently available methods. […] Though topical application to the inside of the mouth may be more difficult, it is preferably achieved by providing a thick gel or cream, and applying to the affected area, preferably during the middle of the night when the mouth is dry.

[10] = tested on: Human Cervical Epithelial and Cancerous Cell Lines; conditions: in vitro, dose dependent and time dependent, partially through inducing apoptosis; cited from earlier work
UVB-induced skin cancers [11] = conditions: p.o.; 38% in placebo treated controls; cited from earlier work
[12] = tested on: polyamine de novo synthesis and DNA polymerase; conditions: colon and small intestine; cited from earlier work
[13] = tested on: cervical intraepithelial neoplasia level III; conditions: cited from earlier work
[14] = 0.06 to 1.0 g/m^2 per day for 30 days

For CC(=O)Oc1ccccc1C(=O)O [aspirin], the “effect on colon adenocarcinomas” value (colon adenocarcinomas) is listed as “inhibited colon adenocarcinomas”.

In the case of C=CCSSCC=C [diallyl disulfide], the “effect on colon adenocarcinomas” value (colon adenocarcinomas) is given as “inhibited colon adenocarcinomas”.

For O=c1[nH]cc(F)c(=O)[nH]1 [5-FU, 5-fluorouracil], the tolerability ([1]; in the vagina) is given as “relatively well tolerated” and the tolerability ([1]; on the vulva) is given as “extremely poorly tolerated”.

For Cc1c(-c2cnccn2)ssc1=S [oltipraz], the “effect on colon adenocarcinomas” value (colon adenocarcinomas) is given as “inhibited colon adenocarcinomas”.

In the case of CC1(C)O[C@@H]2C[C@H]3[C@@H]4CCC5=CC(=O)C=C[C@]5(C)[C@@]4(F)[C@@H](O)C[C@]3(C)[C@]2(C(=O)CO)O1 [triamcinolone, triamcinolone acetonide], the “effect on inflammatory response to fluorouracil” value (actinic keratoses [2]) is given as “reduce inflammatory response”, the “effect on the effectiveness of fluorouracil” value (actinic keratoses [2]) is given as “did not alter the effectiveness of the fluorouracil” and the “surviving fraction factor fs” value ([3]; 100 μM) is given as 0.999. The “surviving fraction factor fs” value ([3]; 150 μM) was 0.999, the “surviving fraction factor fs” value ([3]; 200 μM) was 0.872 and the “rate of tumor growth (tumor volume over fifty days)” value (II-4 cells in SCID mice) was “decreases the rate of tumor growth”.

With O=C(O)Cc1ccccc1Nc1c(Cl)cccc1Cl [diclofenac] the “surviving fraction factor fs” value ([3]; 150 μM) was 0.703 and the “surviving fraction factor fs” value ([3]; 175 μM) was 0.518.

In the case of CC1=C(CC(=O)O)c2cc(F)ccc2/C1=C\c1ccc([S+](C)[O-])cc1 (centres unmarked) [sulindac], the “effect on colon adenocarcinomas” value (colon adenocarcinomas) is given as “inhibited colon adenocarcinomas”.

In the case of CC(C)Cc1ccc(C(C)C(=O)O)cc1 (centres unmarked) [ibuprofen], the “effect on colon adenocarcinomas” value (colon adenocarcinomas) is listed as “inhibited colon adenocarcinomas”.

In the case of CN1C(C(=O)Nc2ccccn2)=C(O)c2ccccc2S1(=O)=O [piroxicam], the “effect on colon adenocarcinomas” value (colon adenocarcinomas) is listed as “inhibited colon adenocarcinomas”.

For NCCC[C@](N)(C(=O)O)C(F)F (racemic) [alpha-DFMO, Alpha-Difluoromethylornithine], the growth inhibition [4] is given as “dose-dependent growth-inhibitory effect”, the UVB-induced skin cancers (UVB-induced skin cancers [5]) is given as “dramatically reduced” and the “number of AKs on the arms” value (actinic keratoses [6]) is given as “reduced the number of AKs”. For the same compound, the systemic uptake [7] was “negligible systemic uptake”, the “surviving fraction factor fs” value ([3]; 50 μM) was 0.749 and the “surviving fraction factor fs” value ([3]; 75 μM) was 0.807. For the same compound, the growth inhibition [8] was “dose-dependent growth-inhibitory effect”, the “incidence of skin reactions” value [9] was roughly 20% and the “growth of cervical pre-cancerous and cancerous cells” value [10] was “inhibits the growth”. For the same compound, the “effect on colon adenocarcinomas” value (colon adenocarcinomas) was “inhibited colon adenocarcinomas”, the “UVB-induced skin cancers in treated animals” value (UVB-induced skin cancers [11]) was 9% and the “DMH-induced activation of polyamine de novo synthesis and DNA polymerase” value [12] was “completely prevented”. The overall response rate ([13]; 0.06 to 1.0 g/m^2 per day for 30 days, 30 women) was 50%, the “patients experiencing a complete response” value [13, 14] was “five out of thirty” and the “patients experiencing a partial response (reduction to levels I or II)” value [13, 14] was “ten out of thirty”. For the same compound, the toxicity [13, 14] was “minimal toxicity”, the “dose down to which serum polyamine modulation was significant” value ([13]; serum) was 0.125 g/m^2 per day and the “dose level down to which tissue polyamine modulation was significant” value ([13]; tissue) was 0.5 g/m^2 per day. The “rate of tumor growth (tumor volume over fifty days)” value (II-4 cells in SCID mice) was “decreases the rate of tumor growth”.
